Measured values from patent publication US7067619B2, “Integrin-binding peptides” (La Jolla Cancer Research Foundation, priority 1993, dated 2006).
Bridge positions count the residues as written; N and C are the ends. Ends that are not written are not given here.

How the values were obtained:
[1] = target: T1, α5β1 integrin (Homo sapiens, UniProt P05556+P08648); experiment: Inhibition of 125I-fibronectin binding to α5β1 integrin by competing peptides; details: 1 hour, compared with cyclic CRGDC peptide, FIG. 1
T1 construct: The αvβ3, αvβ5 and α5β1 integrins were isolated from human placental extracts; from tissue; host or cells: human placenta
Protocol: (§1) In addition, most of the phage-binding activity in the αvβ3 preparation was captured into microliter wells coated with antibodies against the αv or β3 subunits as described previously (Koivunen et al., J. Biol. Chem., 268:20205–10 (1993). The αIIbβ3 integrin was isolated from outdated platelets (Pytela et al., Science, 231:1559–1562 (1986)).
The α5β1 integrin was bound to α5 specific antibody-coated wells by incubating 300 μl of a placental extract per well in TBS buffer containing 0.1 M octylglucoside, 1 mM CaCl2, 1 mM MnCl2 and proteinase inhibitors overnight at 4° C., (Koivunen et al., J. Biol. Chem., 268: 20205–20210 (1993). Alternatively, the α5β1 integrin was directly coated on plastic as described above.
The wells were extensively washed with TBS containing 0.1% NP-40. ^125I-labeled fibronectin (100,000 cpm per well) was incubated in the presence of competing peptides for 1 hour at 25° C. in 100 μl volume of TBS containing 0.1% NP-40 and 1 mM MnCl2, as described by Koivunen et al., J. Biol. Chem. 268: 20205–20210 (1993). After repeated washing, the bound radioactivity was quantitated with a gamma counter.
Initially, […] [SEQ ID NO:12] was examined for its ability to inhibit binding of fibronectin, which is the natural ligand for α5β1. […] Following incubation, the wells were washed and bound radioactivity was determined with a gamma counter.

[2] = target: T2, α5β1 integrin (Mus musculus, UniProt P09055+P11688); experiment: Inhibition of attachment of NIH 3T3 cells to fibronectin; type: cell-based; details: mouse NIH 3T3 cells
T2 construct: CHO cells C11 and NIH 3T3 cells express the endogenous Chinese hamster and mouse α5β1 integrins, respectively; endogenous in cells; host or cells: NIH 3T3 cells
Excerpt: Cell lines expressing different integrins were used to examine peptide inhibition of integrin function. A human melanoma cell line, C8161, a fibroblast cell line, WI-38, and an osteosarcoma cell line, MG-63 (described by Seftor et al., Canc. Res., 53:3411–3415 (1993); Vogel et al., J. Biol. Chem., 265:5934–5937 (1990); and Pytela et al. (1985), supra, respectively, each of which is incorporated herein by reference) attach to fibronectin through α5β1 integrin, as does B2/α27, a CHO cell line transfected with human α5. B2/C1, the control parental CHO line (Bauer et al., J. Cell. Biol. 116:477–487 (1992), which is incorporated herein by reference), attaches via […]. CHO cells C11 and NIH 3T3 cells express the endogenous Chinese hamster and mouse α5β1 integrins, respectively. The human melanoma cells, A375-M, attach to fibronectin through both α5β1 and α4β1 integrins (Mould et al., J. Biol. Chem. 265:4020–4024 (1990), which is incorporated herein by reference). CHO cell line B2/v7 express the αvβ1 integrin (Zhang et al., J. Cell. Biol. 122:235–242 (1993), which is incorporated herein by reference). […]
Cell lines expressing fibronectin-binding integrins were used to determine peptide activities against these integrins in the cell attachment assay described by Ruoslahti et al., Meth. […] Bound cells were quantitated by staining with 0.1% amido black.

[3] = target: T1, α5β1 integrin; experiment: Inhibition of peptide-displaying phage binding to α5β1 integrin by synthetic peptides; details: for binding affinity for α5β1: high binding affinity defined as IC50 of 1×10^−7 M or less in a competitive binding assay
Protocol: Phage clone containing the RGDGW [SEQ ID NO:9] sequence was incubated for 1 hour in integrin-coated microliter wells in the presence of the competing peptides. After extensive washing, the phage remained bound were determined as described in Example XII.
as §1
Binding of individual cloned phage to integrins was studied in microliter wells as described in Koivunen et al., J. Cell. Biol., 124:373–380 (1994). Phage binding to α5β1 and αvβ3 were assayed in TBS buffer containing 1% BSA and 1 mM MnCl2 and binding to αvβ5 in the presence of 1 mM CaCl2. Phage that were bound were determined by their ability to infect F-pilus positive K91kan bacteria. Bacteria were grown overnight in microliter wells in the presence of tetracycline and the absorbance indicative of bacterial growth was read at 600 nm with an ELISA plate reader.
Relative affinities of the […] [SEQ ID NO:12] and CRGDC [SEQ ID NO:37] peptides were determined by inhibition of binding of peptide-displaying phage to α5β1 integrin. Peptide-displaying phage were constructed as described by Scott and Smith, Science 249:386–390 (1990) and Example IV. Microwell plates were coated with various integrins as described by Koivunen et al., J. Biol. Chem., 268:20205–10 (1993) and Example II.
The binding of […] [SEQ ID NO:12]-containing peptide ligands to α5β1 integrin was performed as follows. RRETAWA [SEQ ID NO:8]-displaying phage were incubated for 1 hour in the presence of various concentrations of the cyclic peptides containing […] [SEQ ID NO:12] and containing CRGDC [SEQ ID NO:37] in microliter wells coated with the α5β1 integrin. Binding was quantitated by adding K91kan bacteria directly to the wells and growing the bacteria overnight at room temperature (Smith and Scott, Meth. Enzymol., 217:228–257 (1993), which is incorporated herein by reference).
Additional peptide motifs were tested as follows. ELRGDGW-displaying [SEQ ID NO:4] phage were added together with various concentrations of the cyclic peptides containing […] [SEQ ID NO:12] and containing CRGDC [SEQ ID NO:37] into microliter wells coated with the α5β1 integrin, incubated for 1 hour at room temperature and binding to wells was quantitated.

[4] = Precipitation behaviour of the peptide in solution; type: physicochemical; details: neutral pH

T1 sequence (P08648 42-894 limits assumed): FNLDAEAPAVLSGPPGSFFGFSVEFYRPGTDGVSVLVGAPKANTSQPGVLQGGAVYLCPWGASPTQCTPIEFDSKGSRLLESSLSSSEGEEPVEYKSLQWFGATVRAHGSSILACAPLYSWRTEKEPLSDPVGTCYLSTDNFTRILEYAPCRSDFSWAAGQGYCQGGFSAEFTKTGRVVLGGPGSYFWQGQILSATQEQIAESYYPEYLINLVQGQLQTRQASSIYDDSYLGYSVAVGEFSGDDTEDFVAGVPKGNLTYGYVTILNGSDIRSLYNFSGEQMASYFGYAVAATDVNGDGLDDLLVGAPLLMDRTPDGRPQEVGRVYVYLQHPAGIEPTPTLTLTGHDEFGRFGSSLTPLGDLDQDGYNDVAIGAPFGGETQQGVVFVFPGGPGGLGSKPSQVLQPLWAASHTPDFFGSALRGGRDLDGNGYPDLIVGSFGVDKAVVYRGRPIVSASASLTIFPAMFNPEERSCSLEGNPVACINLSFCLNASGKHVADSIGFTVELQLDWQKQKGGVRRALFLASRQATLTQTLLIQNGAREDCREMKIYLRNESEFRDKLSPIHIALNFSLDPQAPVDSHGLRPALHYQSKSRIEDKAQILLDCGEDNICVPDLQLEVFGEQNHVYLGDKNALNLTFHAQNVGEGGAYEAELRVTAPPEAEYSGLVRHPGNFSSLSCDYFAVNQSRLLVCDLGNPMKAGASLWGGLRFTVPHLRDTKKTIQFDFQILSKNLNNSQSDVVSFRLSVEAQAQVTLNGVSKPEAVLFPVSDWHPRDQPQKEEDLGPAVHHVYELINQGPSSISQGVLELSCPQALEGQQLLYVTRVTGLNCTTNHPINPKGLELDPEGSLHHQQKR
T1 sequence (P08648 895-1049 partner limits assumed): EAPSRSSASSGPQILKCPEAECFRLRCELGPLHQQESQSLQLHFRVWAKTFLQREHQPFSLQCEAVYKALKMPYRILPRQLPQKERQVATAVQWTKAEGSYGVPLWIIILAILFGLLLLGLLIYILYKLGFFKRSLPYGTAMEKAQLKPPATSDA
T1 sequence (P05556 21-798): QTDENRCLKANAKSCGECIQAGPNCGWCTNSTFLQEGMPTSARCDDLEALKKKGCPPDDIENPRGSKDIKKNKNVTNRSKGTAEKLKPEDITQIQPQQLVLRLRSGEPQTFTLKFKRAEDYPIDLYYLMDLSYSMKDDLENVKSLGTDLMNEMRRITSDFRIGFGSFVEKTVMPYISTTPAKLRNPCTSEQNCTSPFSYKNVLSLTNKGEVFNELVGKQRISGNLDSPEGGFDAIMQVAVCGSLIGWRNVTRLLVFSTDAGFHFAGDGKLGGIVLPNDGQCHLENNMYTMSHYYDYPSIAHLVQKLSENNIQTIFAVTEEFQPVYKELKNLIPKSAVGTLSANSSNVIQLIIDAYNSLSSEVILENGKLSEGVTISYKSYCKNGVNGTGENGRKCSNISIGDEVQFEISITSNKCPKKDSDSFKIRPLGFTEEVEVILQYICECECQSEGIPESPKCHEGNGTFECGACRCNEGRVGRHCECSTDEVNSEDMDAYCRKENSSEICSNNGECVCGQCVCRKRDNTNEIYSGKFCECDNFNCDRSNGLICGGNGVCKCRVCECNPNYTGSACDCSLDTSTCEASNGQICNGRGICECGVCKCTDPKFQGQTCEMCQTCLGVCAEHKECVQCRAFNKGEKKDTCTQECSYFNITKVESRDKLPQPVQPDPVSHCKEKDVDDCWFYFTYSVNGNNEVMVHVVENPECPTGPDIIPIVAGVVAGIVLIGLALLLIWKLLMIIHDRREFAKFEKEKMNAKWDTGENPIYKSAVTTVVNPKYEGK
T2 sequence (P11688 45-898 limits assumed): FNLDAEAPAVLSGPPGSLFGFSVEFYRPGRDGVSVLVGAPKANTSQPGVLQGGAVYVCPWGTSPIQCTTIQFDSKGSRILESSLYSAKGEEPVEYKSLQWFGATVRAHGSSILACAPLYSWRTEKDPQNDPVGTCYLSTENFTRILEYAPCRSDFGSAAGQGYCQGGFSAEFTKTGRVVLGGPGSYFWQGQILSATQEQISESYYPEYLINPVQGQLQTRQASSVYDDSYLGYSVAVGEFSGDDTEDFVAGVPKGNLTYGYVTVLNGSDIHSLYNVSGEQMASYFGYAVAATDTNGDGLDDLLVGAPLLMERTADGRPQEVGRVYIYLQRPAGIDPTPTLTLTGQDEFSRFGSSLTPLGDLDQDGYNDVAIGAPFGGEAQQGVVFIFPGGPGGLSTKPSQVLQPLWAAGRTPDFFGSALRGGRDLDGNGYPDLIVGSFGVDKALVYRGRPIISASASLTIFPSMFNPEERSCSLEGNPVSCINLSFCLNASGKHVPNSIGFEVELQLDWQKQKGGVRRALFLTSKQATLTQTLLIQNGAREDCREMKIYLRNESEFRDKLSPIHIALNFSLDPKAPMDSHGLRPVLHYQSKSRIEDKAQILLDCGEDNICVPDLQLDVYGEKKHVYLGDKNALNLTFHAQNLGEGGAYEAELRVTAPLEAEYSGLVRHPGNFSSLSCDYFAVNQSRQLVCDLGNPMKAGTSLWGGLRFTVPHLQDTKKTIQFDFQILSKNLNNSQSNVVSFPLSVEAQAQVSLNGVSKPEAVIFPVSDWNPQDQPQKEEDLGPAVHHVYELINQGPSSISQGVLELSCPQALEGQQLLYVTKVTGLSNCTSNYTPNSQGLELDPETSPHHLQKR
T2 sequence (P11688 899-1053 partner limits assumed): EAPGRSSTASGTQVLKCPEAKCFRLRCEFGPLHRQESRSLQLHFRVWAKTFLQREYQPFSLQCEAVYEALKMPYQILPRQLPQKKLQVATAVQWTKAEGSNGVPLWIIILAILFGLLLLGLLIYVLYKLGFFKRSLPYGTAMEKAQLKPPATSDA
T2 sequence (P09055 21-798): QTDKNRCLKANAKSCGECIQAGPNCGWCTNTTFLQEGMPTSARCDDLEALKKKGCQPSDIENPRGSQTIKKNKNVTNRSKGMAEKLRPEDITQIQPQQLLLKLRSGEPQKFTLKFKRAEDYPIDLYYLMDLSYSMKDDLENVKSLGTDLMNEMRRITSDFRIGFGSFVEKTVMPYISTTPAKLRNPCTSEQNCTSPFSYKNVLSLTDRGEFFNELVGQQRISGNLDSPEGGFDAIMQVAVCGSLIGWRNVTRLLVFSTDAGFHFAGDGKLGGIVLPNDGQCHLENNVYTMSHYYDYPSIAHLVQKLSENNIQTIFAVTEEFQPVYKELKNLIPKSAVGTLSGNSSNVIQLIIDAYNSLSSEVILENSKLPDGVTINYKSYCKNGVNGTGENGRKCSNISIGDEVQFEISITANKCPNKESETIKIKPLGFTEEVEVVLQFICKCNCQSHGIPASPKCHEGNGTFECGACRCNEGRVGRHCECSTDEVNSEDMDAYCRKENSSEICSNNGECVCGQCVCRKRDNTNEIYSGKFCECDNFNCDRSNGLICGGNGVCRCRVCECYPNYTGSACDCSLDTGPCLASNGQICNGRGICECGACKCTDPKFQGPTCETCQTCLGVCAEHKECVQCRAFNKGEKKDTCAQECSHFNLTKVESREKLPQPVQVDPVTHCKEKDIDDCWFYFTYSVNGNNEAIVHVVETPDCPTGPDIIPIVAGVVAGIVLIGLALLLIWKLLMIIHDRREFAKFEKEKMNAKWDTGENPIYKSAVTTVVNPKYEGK

Substance	inhibition of fibronectin binding to α5β1 [1]	blocking of attachment of NIH 3T3 cells to fibronectin [2]	inhibition of binding of ELRGDGW-displaying phage to α5β1 integrin ([3]; ELRGDGW-displaying phage, CRRETAWAC compared with CRGDC, FIG. 2)	efficiency of inhibition of RRETAWA-displaying phage binding to α5β1 relative to CRGDC containing peptides ([3]; RRETAWA-displaying phage, comparator CRGDC, FIG. 4)	binding affinity for α5β1 ([3]; listed as CRRETAWAC)	binding affinity for α5β1 ([3]; listed as GA*CRRETAWAC*GA)	precipitation of the peptide [4]	inhibition of RGD phage binding to α5β1 ([3]; RGDGW phage, FIG. 9)
GACRRETAWACGA	equally as well as the cyclic CRGDC	could not block	approximately the same degree	at least 10 times	high binding affinity	high affinity	–	–
A*CPSRLDSPC*G (ACPSRLDSPCG; disulfide 2-10 (inferred))	–	–	–	–	–	–	tendency of the peptide precipitate at neutral pH	no inhibition
